Experimental data taken from ChEMBL document CHEMBL4422615, “Novel non-xanthine antagonist of the A2B adenosine receptor: From HTS hit to lead structure” (Eur J Med Chem, 2019).
Calls of active or inactive are those of the source. The calls are words filed in the database; no cut-off is given here.

Tests used:
[1] = Dose normalized AUC in mouse at 0.3 mg/kg, iv administered as bolus dose by HPLC-MS/MS analysis; format: ADME, organism-based; details: in vivo
[2] = Clearance in rat plasma at 0.3 mg/kg, iv administered as bolus dose by HPLC-MS/MS analysis; format: ADME, organism-based
[3] = Blood clearance in rat by measuring Intrinsic clearance in rat hepatocytes by MS/MS analysis; format: ADME, cell-based
[4] = Toxicity in FITC-induced C57BL/6J mouse pulmonary fibrosis model assessed as change in body weight administered as bid dose via gavage pretreated for 45 mins before FITC addition until 72 hrs after FITC application; details: in vivo, po
[5] = system: Mus musculus; test: Antifibrotic activity in silica-induced C57BL/6J mouse pulmonary fibrosis model assessed as reduction in TGF-beta level in lung tissue homogenate at 100 to 500 mg/kg, bid administered via gavage treated from day 1 until day 7 after silica application by ELISA; format: functional, organism-based
[6] = target: T1, Adenosine receptor A3 (Mus musculus, UniProt Q61618); test: Antagonist activity at recombinant mouse A3 adenosine receptor expressed in CHO cells after 3 to 4 hrs by luciferase reporter gene assay; format: cell-based
T1 sequence (Q61618 whole entry): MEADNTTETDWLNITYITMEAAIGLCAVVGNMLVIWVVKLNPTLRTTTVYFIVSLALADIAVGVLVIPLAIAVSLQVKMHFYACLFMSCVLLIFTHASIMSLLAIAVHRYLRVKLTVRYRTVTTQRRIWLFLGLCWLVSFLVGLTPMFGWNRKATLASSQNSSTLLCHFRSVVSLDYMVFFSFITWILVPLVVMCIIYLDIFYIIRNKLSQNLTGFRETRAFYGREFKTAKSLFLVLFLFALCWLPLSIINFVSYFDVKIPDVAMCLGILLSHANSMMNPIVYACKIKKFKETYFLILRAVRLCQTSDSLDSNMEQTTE

[7] = target: T2, Cytochrome P450 2C8 (Homo sapiens, UniProt P10632); test: Inhibition of CYP2C8 in human liver microsomes using amodiaquine as substrate after 15 mins in presence of NADPH by LC-MS/MS analysis; format: ADME
T2 sequence (P10632 whole entry): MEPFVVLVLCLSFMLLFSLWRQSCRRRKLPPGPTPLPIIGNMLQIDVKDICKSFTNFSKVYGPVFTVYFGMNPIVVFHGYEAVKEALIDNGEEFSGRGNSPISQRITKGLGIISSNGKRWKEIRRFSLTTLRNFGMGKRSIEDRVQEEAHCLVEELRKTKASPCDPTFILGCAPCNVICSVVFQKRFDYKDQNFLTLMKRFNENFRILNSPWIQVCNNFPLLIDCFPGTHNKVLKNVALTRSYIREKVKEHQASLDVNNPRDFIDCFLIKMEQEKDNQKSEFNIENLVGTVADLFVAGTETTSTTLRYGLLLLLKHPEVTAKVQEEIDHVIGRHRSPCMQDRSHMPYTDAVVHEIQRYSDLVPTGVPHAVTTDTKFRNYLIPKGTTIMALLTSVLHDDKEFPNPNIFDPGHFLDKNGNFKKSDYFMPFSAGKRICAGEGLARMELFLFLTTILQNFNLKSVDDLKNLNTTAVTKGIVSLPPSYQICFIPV

[8] = Partition coefficient, log P of the compound; format: physicochemical; details: octanol/water
[9] = Intrinsic clearance in rat hepatocytes by MS/MS analysis; format: ADME, cell-based, Hepatocyte
[10] = Oral bioavailability in rat at 1 mg/kg for 15 mins by HPLC-MS/MS analysis; format: ADME, organism-based; details: in vivo
[11] = Half life in mouse at 1 mg/kg, iv administered as bolus dose by HPLC-MS/MS analysis; format: ADME, organism-based; details: in vivo
[12] = target: T3, Cytochrome P450 1A2 (Homo sapiens, UniProt P05177); test: Inhibition of CYP1A2 in human liver microsomes using phenacetin as substrate after 15 mins in presence of NADPH by LC-MS/MS analysis; format: ADME
T3 sequence (P05177 whole entry): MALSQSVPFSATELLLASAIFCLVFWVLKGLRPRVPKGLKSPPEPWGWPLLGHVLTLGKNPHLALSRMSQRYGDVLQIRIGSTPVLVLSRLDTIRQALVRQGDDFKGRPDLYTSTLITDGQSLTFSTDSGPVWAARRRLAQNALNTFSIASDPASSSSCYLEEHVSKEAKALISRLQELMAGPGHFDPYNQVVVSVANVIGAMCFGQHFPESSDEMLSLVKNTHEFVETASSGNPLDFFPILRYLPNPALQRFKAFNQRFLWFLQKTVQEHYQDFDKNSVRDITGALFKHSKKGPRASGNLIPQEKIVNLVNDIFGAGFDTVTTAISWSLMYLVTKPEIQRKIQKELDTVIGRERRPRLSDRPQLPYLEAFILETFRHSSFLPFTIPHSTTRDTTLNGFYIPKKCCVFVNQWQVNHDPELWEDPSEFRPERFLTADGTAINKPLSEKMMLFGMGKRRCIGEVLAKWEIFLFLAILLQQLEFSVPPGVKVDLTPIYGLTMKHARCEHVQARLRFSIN

[13] = target: T4, Adenosine receptor A3 (Homo sapiens, UniProt P0DMS8); test: Displacement of [125I]AB-MECA from human A3 adenosine receptor expressed in HEK293 cell membranes after 120 mins by radioligand displacement assay
T4 sequence (P0DMS8 whole entry): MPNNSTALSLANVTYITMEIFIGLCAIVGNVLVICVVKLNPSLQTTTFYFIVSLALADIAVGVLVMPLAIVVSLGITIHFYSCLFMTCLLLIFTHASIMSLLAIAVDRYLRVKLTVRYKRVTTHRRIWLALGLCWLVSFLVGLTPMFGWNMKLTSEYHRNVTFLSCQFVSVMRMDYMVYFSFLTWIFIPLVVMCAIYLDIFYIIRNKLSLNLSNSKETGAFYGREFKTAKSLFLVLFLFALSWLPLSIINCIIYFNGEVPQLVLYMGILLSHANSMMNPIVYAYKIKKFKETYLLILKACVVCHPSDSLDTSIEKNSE

[14] = system: Mus musculus; test: Antifibrotic activity in FITC-induced C57BL/6J mouse pulmonary fibrosis model assessed as reduction in lung weight at 100 to 500 mg/kg, bid administered via gavage pretreated for 45 mins before FITC addition until 72 hrs after FITC application; format: functional, organism-based
[15] = target: Adenosine receptor A2a (Homo sapiens, UniProt P29274); test: Antagonist activity at recombinant human A2A adenosine receptor expressed in CHO cells after 3 to 4 hrs by luciferase reporter gene assay; format: cell-based
Adenosine receptor A2a, sequence (P29274 whole entry): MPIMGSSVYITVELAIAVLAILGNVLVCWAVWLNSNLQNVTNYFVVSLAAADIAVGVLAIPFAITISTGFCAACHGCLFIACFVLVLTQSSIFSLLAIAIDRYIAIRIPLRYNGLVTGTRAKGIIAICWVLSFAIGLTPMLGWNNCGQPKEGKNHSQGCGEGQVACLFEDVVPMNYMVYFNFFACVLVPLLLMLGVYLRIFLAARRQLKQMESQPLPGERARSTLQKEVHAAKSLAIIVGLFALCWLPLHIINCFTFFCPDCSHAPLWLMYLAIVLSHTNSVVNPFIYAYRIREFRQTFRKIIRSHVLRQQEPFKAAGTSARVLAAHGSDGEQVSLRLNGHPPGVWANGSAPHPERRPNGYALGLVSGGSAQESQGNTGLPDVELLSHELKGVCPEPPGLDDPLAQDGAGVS

[16] = Fraction unbound in human plasma by equilibrium dialysis method; format: ADME, cell-free
[17] = target: Cytochrome P450 3A4 (Homo sapiens, UniProt P08684); test: Inhibition of CYP3A4 in human liver microsomes using midazolam as substrate preincubated for 30 mins followed by substrate addition measured after 10 mins in presence of NADPH by LC-MS/MS analysis; format: ADME
Cytochrome P450 3A4, sequence (P08684 whole entry): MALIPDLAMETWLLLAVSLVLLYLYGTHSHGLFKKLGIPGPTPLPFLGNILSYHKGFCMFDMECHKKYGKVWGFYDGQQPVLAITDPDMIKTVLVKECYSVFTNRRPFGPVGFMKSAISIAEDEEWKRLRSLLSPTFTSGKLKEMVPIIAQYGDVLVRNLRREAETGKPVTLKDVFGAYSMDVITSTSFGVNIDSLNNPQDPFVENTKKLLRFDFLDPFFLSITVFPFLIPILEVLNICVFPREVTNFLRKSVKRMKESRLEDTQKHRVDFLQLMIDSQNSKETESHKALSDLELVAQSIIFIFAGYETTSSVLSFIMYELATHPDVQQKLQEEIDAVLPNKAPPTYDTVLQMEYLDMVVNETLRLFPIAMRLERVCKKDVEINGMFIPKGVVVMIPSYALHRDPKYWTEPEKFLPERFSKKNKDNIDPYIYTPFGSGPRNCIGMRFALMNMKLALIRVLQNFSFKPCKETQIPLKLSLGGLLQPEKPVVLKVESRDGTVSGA

[18] = system: Mus musculus; test: Antifibrotic activity in silica-induced C57BL/6J mouse pulmonary fibrosis model assessed as reduction in lung weight at 100 to 500 mg/kg, bid administered via gavage treated from day 1 until day 7 after silica application; format: functional, organism-based
[19] = Half life in dog at 0.3 mg/kg, iv administered as infusion for 15 mins by HPLC-MS/MS analysis; format: ADME, organism-based, Canis lupus familiaris; details: in vivo

AUC/dose [1]: 1.6 kg·h/L | clearance [2]: 18.3 mL/min/kg | CLhep predicted [3]: 23.3 mL/min/kg | IC50 [6]: > 6.7 µM | IC50 [7]: > 20 µM | logP [8]: 1.99 | CLhep predicted [9]: 23.3 mL/min/kg | bioavailability [10]: 88% | half-life [11]: 2.1 h | IC50 [12]: > 20 µM | Ki [13]: > 10 µM | IC50 [15]: 0.82 µM | fraction unbound [16]: 0.6 | IC50 [17]: > 20 µM | half-life [19]: 6.6 h
SMILES: CCn1c(=O)c2c(C)c(C(=O)N3CCC(O)CC3)sc2n(CCC(F)(F)F)c1=O
Activity [4]: Non-Toxic | Activity [5]: Active | Activity [14]: Active | Activity [18]: Active
